# Test results reported in patent US20080280920A1, “Plasminogen Activator Inhibitor-1 Inhibitors” (priority 2005, published 2008).
# Columns and labels:
# SW-620 = test: NCI anticancer screen, SW-620; assay type: cell-based, human; conditions: SW-620, Colon, 48 h
# TK-10 = test: NCI anticancer screen, TK-10; assay type: cell-based, human; conditions: TK-10, Renal, 48 h
# UACC-62 = test: NCI anticancer screen, UACC-62; assay type: cell-based, human; conditions: UACC-62, Melanoma, 48 h
# SK-OV-3 = test: NCI anticancer screen, SK-OV-3; assay type: cell-based, human; conditions: SK-OV-3, Ovarian, 48 h
# IGR-OV1 = test: NCI anticancer screen, IGR-OV1; assay type: cell-based, human; conditions: IGR-OV1, Ovarian, 48 h
# SF-268 = test: NCI anticancer screen, SF-268; assay type: cell-based, human; conditions: SF-268, CNS, 48 h
# MCF7 = test: NCI anticancer screen, MCF7; assay type: cell-based, human; conditions: MCF7, Breast, 48 h
# HL-60(TB) = test: NCI anticancer screen, HL-60(TB); assay type: cell-based, human; conditions: Leukemia, 48 h
# OVCAR-4 = test: NCI anticancer screen, OVCAR-4; assay type: cell-based, human; conditions: OVCAR-4, Ovarian, 48 h
# MOLT-4 = test: NCI anticancer screen, MOLT-4; assay type: cell-based, human; conditions: MOLT-4, Leukemia, 48 h
# U251 = test: NCI anticancer screen, U251; assay type: cell-based, human; conditions: U251, CNS, 48 h
# SF-539 = test: NCI anticancer screen, SF-539; assay type: cell-based, human; conditions: SF-539, CNS, 48 h
# HCC-2998 = test: NCI anticancer screen, HCC-2998; assay type: cell-based, human; conditions: HCC-2998, Colon, 48 h
# HOP-92 = test: NCI anticancer screen, HOP-92; assay type: cell-based, human; conditions: HOP-92, Non-Small Cell Lung, 48 h
# CAKI-1 = test: NCI anticancer screen, CAKI-1; assay type: cell-based, human; conditions: CAKI-1, Renal, 48 h
# wildtype human PAI-1 = target: T1, wildtype human PAI-1 (Homo sapiens, UniProt P05121); test: PAI-1/uPA assay (residual uPA activity, fluorescent substrate SpectroFluor); assay type: biochemical
# T1 construct: purchased Molecular Innovations Lot# HWT-804
# Protocol: Principle: The assay is based on using a fluorescent substrate (SpectroFluor) to measure residual uPA following inhibition of uPA by PAI-1. PAI-1 used in the assay is pre-treated in the presence of increasing concentrations of the lead compounds to screen for any inhibitory effects on PAI-1. Method: This assay was performed in 96 well microtiter plates. The concentrations of uPA (8 nM) and PAI-1 (6 nM) used in this assay were carefully optimized when using the fluorescent substrate, SpectroFluor™. Stock solutions (10 mM) of all lead compounds were prepared fresh in DMSO. […] 20 μl of 6 nM wildtype human PAI-1 (Molecular Innovations, Lot# HWT-804) was incubated for 15-20 minutes at room temperature in 96 well microtiter plates either with buffer, (50 mM HEPES, 150 mM NaCl, 0.05% Tween-20, 1% BSA, pH 6.6) or various concentrations (10 nM to 100 μM final concentration) of lead compounds in a total volume of 80 μl. A 20 μl aliquot of 8 nM uPA (HMW) solution in 0.05M Tris Buffered™ saline (TBS), pH 8.4 was added to each well and the mixture incubated for an additional 5 minutes at RT. The proteolytic reaction was initiated by addition of 50 μl of 0.1 mM SpectroFluor (Spectrozyme UK Fluorogenic substrate) to each well. The kinetics of the free chromophore, 7-amino-4-methylcoumarin (AMC) released in the course of peptide cleavage by the protease, uPA, was monitored for 30 minutes at 37° C. on a spectrofluorometric microplate reader with an excitation wavelength of 360 nm and emission wavelength of 440 nm. Kinetic data regarding the rate of substrate cleavage by uPA was acquired with Softmax PrO™ software. The difference between the residual uPA activity in the presence or absence of untreated PAI-1, at the molar ratio used, was considered as the “total” PAI-1 activity (100%). The inhibition of uPA by PAI-1 treated with lead compounds was expressed as a percentage of the initial activity of untreated PAI-1. Controls were performed during each experiment to ensure the nearly complete inhibition of uPA by untreated PAI-1 and also to ensure the absence of any direct effect of the lead compounds on uPA alone or on SpectroFluor.
# BT-549 = test: NCI anticancer screen, BT-549; assay type: cell-based, human; conditions: BT-549, Breast, 48 h
# SK-MEL-5 = test: NCI anticancer screen, SK-MEL-5; assay type: cell-based, human; conditions: SK-MEL-5, Melanoma, 48 h
# HS 578T = test: NCI anticancer screen, HS 578T; assay type: cell-based, human; conditions: Breast, 48 h
# UO-31 = test: NCI anticancer screen, UO-31; assay type: cell-based, human; conditions: UO-31, Renal, 48 h
# UACC-257 = test: NCI anticancer screen, UACC-257; assay type: cell-based, human; conditions: Homo sapiens; UACC-257, Melanoma, 48 h
# EKVX = test: NCI anticancer screen, EKVX; assay type: cell-based, human; conditions: Non-Small Cell Lung, 48 h
# PC-3 = test: NCI anticancer screen, PC-3; assay type: cell-based, human; conditions: PC-3, Prostate, 48 h
# [1] = Homo sapiens, read-out: LC50 (the source's name)
# T1 sequence (P05121 24-402): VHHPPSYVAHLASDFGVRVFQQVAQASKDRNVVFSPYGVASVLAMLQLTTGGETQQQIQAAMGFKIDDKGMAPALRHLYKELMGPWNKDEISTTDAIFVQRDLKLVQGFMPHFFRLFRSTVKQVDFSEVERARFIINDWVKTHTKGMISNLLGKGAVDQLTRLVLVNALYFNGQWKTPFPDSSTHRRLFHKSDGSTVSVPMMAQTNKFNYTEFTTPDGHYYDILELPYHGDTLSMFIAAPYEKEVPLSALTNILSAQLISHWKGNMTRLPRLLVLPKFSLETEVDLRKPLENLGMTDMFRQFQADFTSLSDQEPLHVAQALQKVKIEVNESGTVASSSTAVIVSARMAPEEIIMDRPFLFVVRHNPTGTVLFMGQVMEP
compound,measurement,setting,value
COc1cc(CNc2ccc(C(=O)OC(C)(C)C)cc2)cc(CN2CCN(c3ccccn3)CC2)c1O [Compound Q012145T],GI50,SW-620; Homo sapiens,63.7 µM
same,GI50,TK-10; Homo sapiens,70.4 µM
same,GI50,UACC-62; Homo sapiens,74.5 µM
same,GI50,SK-OV-3; Homo sapiens,> 100 µM
same,GI50,"IGR-OV1; Homo sapiens, IGROV-1",> 100 µM
same,GI50,SF-268; Homo sapiens,61.5 µM
same,GI50,MCF7; Homo sapiens,21 µM
same,GI50,HL-60(TB); Homo sapiens,12.4 µM
same,GI50,OVCAR-4; Homo sapiens,46.9 µM
same,GI50,MOLT-4; Homo sapiens,13 µM
same,GI50,"U251; Homo sapiens, U-251",75.9 µM
same,GI50,SF-539; Homo sapiens,> 100 µM
same,GI50,HCC-2998; Homo sapiens,> 100 µM
same,GI50,HOP-92; Homo sapiens,6.57 µM
same,GI50,CAKI-1; Homo sapiens,> 100 µM
same,Conc. of compound required for PAI-1 inhibition (result in words),wildtype human PAI-1; within the concentration range tested,No inhibition
same,GI50,BT-549; Homo sapiens,52.9 µM
same,GI50,SK-MEL-5; Homo sapiens,10.7 µM
same,GI50,HS 578T; Homo sapiens,> 100 µM
same,GI50,UO-31; Homo sapiens,67.2 µM
same,GI50,UACC-257,33 µM
same,GI50,EKVX; Homo sapiens,51.5 µM
same,GI50,PC-3; Homo sapiens,23.5 µM
CCOC(=O)c1ccc(CNCc2cc(CN3CCN(c4ccccn4)CC3)c(O)c(OC)c2)cc1 [Compound Q012135T],GI50,SW-620; Homo sapiens,18.5 µM
same,CC50,SW-620; [1],68 µM
same,TGI,SW-620,35.5 µM
same,GI50,TK-10; Homo sapiens,20.6 µM
same,CC50,TK-10; [1],> 100 µM
same,TGI,TK-10,46.3 µM
same,GI50,UACC-62; Homo sapiens,20.1 µM
same,CC50,UACC-62; [1],72.4 µM
same,TGI,UACC-62,38.2 µM
same,GI50,SK-OV-3; Homo sapiens,24.9 µM
same,CC50,SK-OV-3; [1],> 100 µM
same,TGI,SK-OV-3,56.7 µM
same,GI50,"IGR-OV1; Homo sapiens, IGROV-1",14.7 µM
same,CC50,"IGR-OV1; Homo sapiens, IGROV-1, read-out: LC50 (the source's name)",> 100 µM
same,TGI,IGR-OV1,43.4 µM
same,GI50,SF-268; Homo sapiens,19.1 µM
same,LC50,SF-268; Homo sapiens,71.1 µM
same,TGI,SF-268,36.9 µM
same,GI50,MCF7; Homo sapiens,16.3 µM
same,CC50,MCF7; [1],69.9 µM
same,TGI,MCF7,33.7 µM
same,GI50,HL-60(TB); Homo sapiens,13.1 µM
same,CC50,HL-60(TB); [1],13.1 µM
same,TGI,HL-60(TB),33.7 µM
same,GI50,OVCAR-4; Homo sapiens,18.6 µM
same,CC50,OVCAR-4; [1],98 µM
same,TGI,OVCAR-4,42.7 µM
same,GI50,MOLT-4; Homo sapiens,10.1 µM
same,CC50,MOLT-4; [1],10.1 µM
same,TGI,MOLT-4,31.3 µM
same,GI50,"U251; Homo sapiens, U-251",15.8 µM
same,CC50,"U251; Homo sapiens, U-251, read-out: LC50 (the source's name)",65.7 µM
same,TGI,U251,32.2 µM
same,GI50,SF-539; Homo sapiens,16 µM
same,CC50,SF-539; [1],57.2 µM
same,TGI,SF-539,30.2 µM
same,TGI,HCC-2998,31.6 µM
same,GI50,HCC-2998; Homo sapiens,15.3 µM
same,LC50,HCC-2998; Homo sapiens,65.1 µM
same,TGI,HOP-92,31.8 µM
same,GI50,HOP-92; Homo sapiens,12.8 µM
same,LC50 (concentration killing 50% of starting cells),HOP-92; Homo sapiens,79.1 µM
same,TGI,CAKI-1,44.0 µM
same,GI50,CAKI-1; Homo sapiens,17.2 µM
same,CC50,CAKI-1; [1],> 100 µM
same,Percent PAI-1 inhibition,"wildtype human PAI-1; at the concentration given, percent of activity of untreated PAI-1",8
same,Conc. of compound required for PAI-1 inhibition,"wildtype human PAI-1; concentration giving the percent inhibition, 6 nM PAI-1, 8 nM uPA",100 µM
same,TGI,BT-549,30.0 µM
same,GI50,BT-549; Homo sapiens,15.5 µM
same,CC50,BT-549; [1],58 µM
same,GI50,SK-MEL-5; Homo sapiens,12.9 µM
same,CC50,SK-MEL-5; [1],51.8 µM
same,TGI,SK-MEL-5,25.8 µM
same,TGI,HS 578T,41.7 µM
same,GI50,HS 578T; Homo sapiens,19.1 µM
same,CC50,HS 578T; [1],90.9 µM
same,GI50,UO-31; Homo sapiens,11.5 µM
same,CC50,UO-31; [1],61.6 µM
same,TGI,UO-31,26.6 µM
same,GI50,EKVX; Homo sapiens,21.3 µM
same,CC50,EKVX; [1],> 100 µM
same,TGI,EKVX,62.1 µM
same,GI50,PC-3; Homo sapiens,17.9 µM
same,CC50,PC-3; [1],> 100 µM
same,TGI,PC-3,45.4 µM
